In data set [1] the test system is ES-2. In words: In vitro combination study, ovarian cancer cell line ES-2. The settings on record: 4+3 model.
Data set [2] relates to OAW42.
Data set [3] relates to HCC1187. In words: In vitro combination study, breast cancer cell line HCC1187. The conditions noted are these: ER/PR −/−, HER2 −, 7 day pre-treatment + 6 day co-treatment.
In data set [4] the test system is DU4475.
The subject of data set [5] is JH)S-4.
Data set [6] relates to A2780.
In data set [7] the test system is RMUGS*.
The test system of data set [8] is COV644*. Put plainly: In vitro combination study, ovarian cancer cell line COV644. The conditions noted are these: COV644*; 7+3 model.
Data set [9] relates to SKOV3.

On to `CC(=O)O[C@H]1C(=O)[C@@]2(C)[C@H]([C@H](OC(=O)c3ccccc3)[C@]3(O)C[C@H](OC(=O)[C@H](O)[C@@H](NC(=O)c4ccccc4)c4ccccc4)C(C)=C1C3(C)C)[C@]1(OC(C)=O)CO[C@@H]1C[C@@H]2O` [Paclitaxel], for which the “Synergy or antagonism of second agent with tazemetostat (IC50 shift of second agent)” value in data set [1] is recorded as “C (Synergy > 2× IC50 shift)”; in data set [2], “B (key: B: Synergy > 4× IC50 shift; Synergy > 2× IC50 shift; No Effect; Antagonism; X: Not Tested)”; in [3] it was “C (Synergy > 2× IC50 shift)”; in [4] it was “B (key: B: Synergy > 4× IC50 shift; Synergy > 2× IC50 shift; No Effect; Antagonism; X: Not Tested)”; in data set [5] it was “C (key: B: Synergy > 4× IC50 shift; Synergy > 2× IC50 shift; No Effect; Antagonism; X: Not Tested)”; in data set [6], “C (key: B: Synergy > 4× IC50 shift; Synergy > 2× IC50 shift; No Effect; Antagonism; X: Not Tested)”. Also, the “Synergy or antagonism of second agent with tazemetostat (IC50 shift of second agent)” value in data set [7] is “C (key: B: Synergy > 4× IC50 shift; Synergy > 2× IC50 shift; No Effect; Antagonism; X: Not Tested)”; in data set [8], “C (Synergy > 2× IC50 shift)”; in data set [9], “C (key: B: Synergy > 4× IC50 shift; Synergy > 2× IC50 shift; No Effect; Antagonism; X: Not Tested)”.

The record behind these values is patent publication US11951108B2, “Combination therapy for treating cancer” (Epizyme, Inc., priority 2016, dated 2024).
